Measured values: patent publication US20080009025A1, “PROTEIN KINASE REGULATION” (priority 1999, published 2008)
Where a SMILES comes first, the peptide text is derived from it.

What was measured:
[1] = target: T1, PDK1 (Homo sapiens, UniProt O15530); experiment: PDK1 activity towards synthetic peptide substrates T308tide or PDKtide; type: biochemical; details: substrate PDKtide
T1 construct: Full length PDK1 (residues 1-556); made in house; host or cells: 293 cells
T1 sequence (O15530 52-556): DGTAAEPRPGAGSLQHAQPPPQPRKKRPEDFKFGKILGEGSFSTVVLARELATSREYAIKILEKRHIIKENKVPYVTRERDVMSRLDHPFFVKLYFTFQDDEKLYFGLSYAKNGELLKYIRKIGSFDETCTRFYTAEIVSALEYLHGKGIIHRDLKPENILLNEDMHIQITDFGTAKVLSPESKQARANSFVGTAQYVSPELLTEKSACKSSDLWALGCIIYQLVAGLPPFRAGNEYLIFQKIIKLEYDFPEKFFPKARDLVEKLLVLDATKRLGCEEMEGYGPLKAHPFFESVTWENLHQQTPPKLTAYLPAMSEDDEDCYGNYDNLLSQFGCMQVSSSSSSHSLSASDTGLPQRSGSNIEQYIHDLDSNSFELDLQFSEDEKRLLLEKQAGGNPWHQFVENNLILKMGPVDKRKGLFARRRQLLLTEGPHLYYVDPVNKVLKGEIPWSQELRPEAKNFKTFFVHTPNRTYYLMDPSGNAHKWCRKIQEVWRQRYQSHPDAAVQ
Description: (§1) FIG. 12. PDK1 is activated and stabilised through its interaction with PIFtide. (A) GST-PDK1 activity was measured in the presence of increasing concentrations of wild type (wt) PIFtide (closed circles) or a mutant D978A PIFtide (open circles) using the synthetic peptide substrate termed T308tide, as described in Material and Methods. The data was fitted to a hyperbola using the Kaleidagraph™ software. The connection needed to obtain 50% activation of PDK1 was […] for wt-PIFtide and 1.1 μM for D978A-PIFtide. The assay shown was performed in triplicate and there was less than 5% difference between each assay. Similar results were obtained in 2 further experiments (B)—The wild type GST-PDK1 (circles) or the L155D mutant of GST-PDK1 (squares) was incubated in the presence (closed symbols) or absence (open symbols) of […] PIFtife and then for 2 min at the indicated temperatures, rapidly brought to 0° C. (see Materials and Methods), and 2 min later assayed at 30° C. for 10 min using T308tide as substrate. The activity of PDK1 obtained by incubation at 30° C. was taken as 100%. The assay shown was performed in duplicate with similar results obtained in two separate experiments.
(§2) FIG. 14. […] (A) His-PDK1 was assayed for activity using as substrate the indicated concentration of either PDKtide (open triangles) or T308tide (open circles). (B) HIS-PDK1 was assayed for activity in the presence if PDKtide (25 μM closed triangles) or T308tide (100 μM closed circles) in the presence of the indicated concentrations of PIFtide. The assay was performed in triplicates with less than 5% difference between the triplicate samples. Similar results were obtained in 3 separate experiments.
(§3) PDK1's ability to phosphorylate Thr308 of PKBα was measured using a mutant of GST-PKBα in which Ser473 was mutated to Asp (GST-473D PKBα) in the presence of phospholipid vesicles containing sn-1-stearoyl-2-arachidonoyl-D-PtdIns (3, 4, 5)P3 [13]. The ability of wild type and mutant PDK1 to phosphorylate the synthetic peptides T308tide or PDKtide was carried out in 20 μl assays containing 50 mM Tris/HCl pH 7.5, 0.1% 2-mercaptoethanol 10 mM MgCl2, 100 μM [γ^32P]ATP (˜500 cpm/pmol) 0.5 μM microcystin-LR.PDK1 and the peptide concentrations indicated under Results. After incubation for 10 min at 30° C. the reaction was stopped by addition of 20 μl of 150 mM phosphoric acid. 35 μl of the resultant mixture was spotted into P81 phosphocellulose paper (2×2 cm) and the papers washed and analysed as described previously for assays of MAP kinase. […] Control assays were carried out in parallel in which either PDK1, or peptide substrate were omitted; these values were always less than 5% of the activity measured in the presence of these reagents. […]

[2] = tested on: PDK1; experiment: as above; type: biochemical, human; details: PDK1 L155 mutants
Description: as §1, §2, §3

[3] = target: T2, GST-PDK1 (Homo sapiens, UniProt O15530); experiment: Thermal denaturation of PDK1 (TM50); type: biochemical; details: wild type GST-PDK1; heated 2 min
T2 construct: Full length PDK1 (residues 1-556); made in house; host or cells: 293 cells
T2 sequence (O15530 1-556): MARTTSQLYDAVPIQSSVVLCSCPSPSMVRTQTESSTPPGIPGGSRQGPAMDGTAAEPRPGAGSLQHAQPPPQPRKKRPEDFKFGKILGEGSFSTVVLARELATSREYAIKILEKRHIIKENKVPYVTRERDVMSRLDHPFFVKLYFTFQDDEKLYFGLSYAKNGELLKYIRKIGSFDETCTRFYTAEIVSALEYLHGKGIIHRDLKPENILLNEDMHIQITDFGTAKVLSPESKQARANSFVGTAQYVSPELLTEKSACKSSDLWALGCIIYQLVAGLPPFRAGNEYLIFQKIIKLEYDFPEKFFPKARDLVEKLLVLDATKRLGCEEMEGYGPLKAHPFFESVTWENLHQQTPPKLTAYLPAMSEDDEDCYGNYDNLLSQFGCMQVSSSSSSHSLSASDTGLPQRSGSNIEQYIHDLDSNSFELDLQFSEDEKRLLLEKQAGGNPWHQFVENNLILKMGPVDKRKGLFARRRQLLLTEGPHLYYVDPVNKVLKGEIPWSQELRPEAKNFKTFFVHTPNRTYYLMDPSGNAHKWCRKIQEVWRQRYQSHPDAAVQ
Excerpt: A further aspect of the invention provides the use of an interacting polypeptide as defined above, for example comprising the amino acid sequence Phe/Tyr-Xaa-Xaa-Phe/Tyr or an interacting compound of the invention in a method of stabilising a protein kinase having a hydrophobic pocket in the position equivalent to the hydrophobic pocket of Protein Kinase A (PKA) that is defined by residues including Lys76, Leu116, Val80 and/or Lys111 of full-length mouse PKA, wherein the protein kinase is exposed to the compound or polypeptide. Stabilisation may be measured by measuring the TM50 value. The TM50 value is the temperature at which heating for two minutes produces a 50% reduction in protein kinase activity (measured using any appropriate substrate) compared with the protein kinase activity before such heating, as described in Example 2. An increase in the TM50 value, for example by at least about 1, 2, 3, 4, 5, 6, 7, 8, 9, 10 or 15° C. indicates stabilisation.
FIG. 12. PDK1 is activated and stabilised through its interaction with PIFtide. (A) GST-PDK1 activity was measured in the presence of increasing concentrations of wild type (wt) PIFtide (closed circles) or a mutant D978A PIFtide (open circles) using the synthetic peptide substrate termed T308tide, as described in Material and Methods. The data was fitted to a hyperbola using the Kaleidagraph™ software. […]

Structure (SMILES): CC[C@H](C)[C@H](NC(=O)[C@H](Cc1ccc(O)cc1)NC(=O)[C@H](CC(=O)O)NC(=O)[C@H](Cc1ccccc1)NC(=O)[C@H](CC(=O)O)NC(=O)[C@H](CCCNC(=N)N)NC(=O)[C@H](Cc1ccccc1)NC(=O)[C@H](CCSC)NC(=O)[C@H](CCC(=O)O)NC(=O)[C@H](CCC(N)=O)NC(=O)[C@H](CCC(=O)O)NC(=O)[C@H](CCC(=O)O)NC(=O)[C@H](CCC(=O)O)NC(=O)[C@H](CO)NC(=O)[C@H](CC(C)C)NC(=O)[C@@H](NC(=O)[C@H](CCCNC(=N)N)NC(=O)[C@@H]1CCCN1C(=O)[C@H](CCC(=O)O)NC(=O)[C@@H](N)CCCNC(=N)N)[C@@H](C)CC)C(=O)N[C@@H](C)C(=O)N[C@@H](CC(=O)O)C(=O)N[C@@H](Cc1c[nH]c2ccccc12)C(=O)N[C@@H](CS)C(=O)O [PIFtide] (H-REPRILSEEEQEMFRDFDYIADWC-OH; N-terminus and C-terminus assumed)
- effect on the activity of PDK1 towards PDKtide [1]: inhibited
- activation of L155A, L155S, L155D and L155E mutants of PDK1 towards T308tide [2]: did not further activate
- increase of TM50 [3]: 8-10 °C
